Assay results: patent US10556905B2, “Processes for preparing a diazabicyclooctane compound” (priority 2012, dated 2020)
Read-outs that look alike come from different tables or passages of the source.

Columns and labels:
AmpC = biological target: T1, AmpC (Pseudomonas aeruginosa, UniProt P24735); assay: biochemical
T1 construct: AmpC, TEM-1, KPC-2 or OXA-2 domain excluding signal peptide was amplified with PCR; made in house; host or cells: Escherichia coli BL21 (DE3), pET-28b(+)

TEM-1 = biological target: T2, TEM-1 (Escherichia coli, UniProt P62593); assay: β-Lactamase inhibitory activity (nitrocefin hydrolysis), TEM-1; assay type: biochemical; settings: TEM-1 0.1 nM, 100 μM nitrocefin, pre-incubation 30° C. 10 minutes
T2 construct: AmpC, TEM-1, KPC-2 or OXA-2 domain excluding signal peptide was amplified with PCR; made in house; host or cells: Escherichia coli BL21 (DE3), pET-28b(+)
Procedure: Using Pseudomonas aeruginosa ATCCBAA-47 genome, plasmid pBR322, Klebsiella pneumoniae ATCCBAA-1705, and P. aeruginosa MSC17696 as a template, each DNA for encoding β-lactamase, AmpC, TEM-1, KPC-2 or OXA-2 domain excluding signal peptide was amplified with PCR. Each of the PCR product was incorporated into pET-28b(+)vector (Merck), introduced into Escherichia coli BL21 (DE3) (Merck), and, under induction of 1 mM isopropyl-β-D-(−)-thiogalactopyranoside (Nacalai Tesque), cultured overnight at 20° C. to express AmpC, TEM-1, KPC-2, and OXA-2. After the bacterial cell was collected, AmpC was purified from the cell extract obtained by ultrasonic treatment, using CM Sepharose Fast Flow (GE Healthcare) and HiTrap Heparin HP (GE Healthcare) at 4° C. TEM-1 was purified with HiTrap SPHP (GE Healthcare), HiTrap Q (GE Healthcare) and Mono Q (GE Healthcare), and KPC-2 was purified with HiTrap SPHP. OXA-2 was purified with HiTrap SPHP and HiTrap Heparin HP.
For the measurement of β-lactamase inhibitory activity, 100 μM (final concentration) nitrocefin (Oxoid) was used as a substrate, and 2.5% DMSO, 10 μg/mL bovine serum derived albumin (Sigma-Aldrich) and 50 mM phosphate buffer at pH 7.0 were used as a reaction solution. […] Nitrocefin was added to each well to be mixed therein, followed by incubation at 30° C. for 20 minutes, and Multiscan Ascent (Thermo Fisher Scientific) was used to measure 492 nm wavelength, thereby measuring nitrocefin hydrolytic activity of β-Lactamase, to determine enzyme inhibitory activity. […] As the inhibitory activity strength, less than 0.1 μM, less than 1 μM, less than 3 μM, less than 10 μM, and 10 μM or more were shown with A, B, C, D, and E respectively.

KPC-2 = biological target: T3, KPC-2 (Klebsiella pneumoniae, UniProt Q9F663); assay: β-Lactamase inhibitory activity (nitrocefin hydrolysis), KPC-2; assay type: biochemical; settings: KPC-2 0.5 nM, 100 μM nitrocefin, pre-incubation 30° C. 10 minutes
T3 construct: AmpC, TEM-1, KPC-2 or OXA-2 domain excluding signal peptide was amplified with PCR; made in house; host or cells: Escherichia coli BL21 (DE3), pET-28b(+)

OXA-2 = biological target: T4, OXA-2 (Escherichia coli, UniProt P0A1V9); assay: biochemical; design: species or system P. aeruginosa
T4 construct: AmpC, TEM-1, KPC-2 or OXA-2 domain excluding signal peptide was amplified with PCR; made in house; host or cells: Escherichia coli BL21 (DE3), pET-28b(+)

[1] = OXA-2 2 nM, 100 μM nitrocefin, pre-incubation 30° C. 10 minutes, read-out: β-Lactamase inhibitory activity OXA-2 (IC50)

T1 sequence (P24735 27-397): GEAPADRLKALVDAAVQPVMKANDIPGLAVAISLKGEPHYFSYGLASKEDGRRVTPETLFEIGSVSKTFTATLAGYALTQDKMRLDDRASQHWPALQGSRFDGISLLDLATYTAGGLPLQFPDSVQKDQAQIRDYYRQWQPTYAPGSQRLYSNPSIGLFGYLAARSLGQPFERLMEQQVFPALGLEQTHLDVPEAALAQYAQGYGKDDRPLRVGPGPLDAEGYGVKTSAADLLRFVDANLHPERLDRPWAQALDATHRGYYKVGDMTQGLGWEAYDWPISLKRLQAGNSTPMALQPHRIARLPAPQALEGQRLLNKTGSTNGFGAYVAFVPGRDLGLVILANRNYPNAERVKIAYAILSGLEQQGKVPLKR
T2 sequence (P62593 24-286 limits assumed): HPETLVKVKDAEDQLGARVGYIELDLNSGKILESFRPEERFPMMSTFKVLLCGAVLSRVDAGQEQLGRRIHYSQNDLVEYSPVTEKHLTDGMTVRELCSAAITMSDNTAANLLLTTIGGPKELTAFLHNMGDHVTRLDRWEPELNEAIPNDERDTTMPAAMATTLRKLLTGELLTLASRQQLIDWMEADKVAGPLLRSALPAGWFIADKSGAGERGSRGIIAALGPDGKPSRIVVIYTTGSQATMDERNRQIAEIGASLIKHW
T3 sequence (Q9F663 25-293, looked up): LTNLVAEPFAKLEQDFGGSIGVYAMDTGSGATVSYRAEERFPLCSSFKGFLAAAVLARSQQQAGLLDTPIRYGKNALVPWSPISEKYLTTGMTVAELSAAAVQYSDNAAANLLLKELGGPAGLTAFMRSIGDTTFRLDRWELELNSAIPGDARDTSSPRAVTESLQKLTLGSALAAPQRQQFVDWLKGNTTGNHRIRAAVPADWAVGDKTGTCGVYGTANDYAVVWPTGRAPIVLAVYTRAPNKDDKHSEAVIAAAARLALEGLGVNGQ
T4 sequence (P0A1V9 22-275): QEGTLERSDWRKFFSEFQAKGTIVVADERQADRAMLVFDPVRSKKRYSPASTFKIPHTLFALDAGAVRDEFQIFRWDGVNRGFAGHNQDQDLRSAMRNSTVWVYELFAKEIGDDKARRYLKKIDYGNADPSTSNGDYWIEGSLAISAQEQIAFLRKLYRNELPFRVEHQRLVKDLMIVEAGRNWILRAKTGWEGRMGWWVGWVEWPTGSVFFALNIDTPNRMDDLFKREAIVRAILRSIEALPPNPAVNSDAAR

SMILES	IC50 (AmpC) [nM]	IC50 (TEM-1) [nM]	IC50 (KPC-2) [nM]	IC50 (OXA-2) [nM]	IC50 (OXA-2; [1]) [nM]
O=C(NNC(=O)[C@@H]1CC[C@@H]2CN1C(=O)N2OS(=O)(=O)O)Nc1ccccc1 (racemic) [Example 49, Sodium 2-{[(2SR,5RS)-7-oxo-6-(sulfooxy)-1,6-diazabicyclo[3.2.1]oct-2-yl]carbonyl}-N-phenylhydrazinecarboxamide]	100 to 1000	< 100	100 to 1000	3000 to 10000	
C[C@@H](CN)ONC(=O)[C@@H]1CC[C@@H]2CN1C(=O)N2OS(=O)(=O)O [Example 68, (2S,5R)—N-{[(2S)-1-Aminopropan-2-yl]oxy}-7-oxo-6-(sulfooxy)-1,6-diazabicyclo[3.2.1]octane-2-carboxamide]	< 100	< 100	100 to 1000		1000 to 3000
CCNCCONC(=O)[C@@H]1CC[C@@H]2CN1C(=O)N2OS(=O)(=O)O [Example 62, (2S,5R)—N-[2-(Ethylamino)ethoxy]-7-oxo-6-(sulfooxy)-1,6-diazabicyclo[3.2.1]octane-2-carboxamide]	100 to 1000	< 100	100 to 1000		1000 to 3000
CCCNCCONC(=O)[C@@H]1CC[C@@H]2CN1C(=O)N2OS(=O)(=O)O [Example 63, (2S,5R)-7-Oxo-N-[2-(propylamino)ethoxy]-6-(sulfooxy)-1,6-diazabicyclo[3.2.1]octane-2-carboxamide]	100 to 1000	< 100	100 to 1000		1000 to 3000
O=C(NOCC(=O)N1CCCNCC1)[C@@H]1CC[C@@H]2CN1C(=O)N2OS(=O)(=O)O [Example 92, (2S,5R)—N-[2-(1,4-Diazepan-1-yl)-2-oxoethoxy]-7-oxo-6-(sulfooxy)-1,6-diazabicyclo[3.2.1]octane-2-carboxamide]	< 100	< 100	100 to 1000		100 to 1000
COCC(=O)NNC(=O)[C@@H]1CC[C@@H]2CN1C(=O)N2OS(=O)(=O)O [Example 29, Sodium (2S,5R)—N′-(methoxyacetyl)-7-oxo-6-(sulfooxy)-1,6-diazabicyclo[3.2.1]octane-2-carbohydrazide]	100 to 1000	< 100	100 to 1000	3000 to 10000	
O=C([C@@H]1CC[C@@H]2CN1C(=O)N2OS(=O)(=O)O)N1CCCO1 [Example 70, Sodium (2S,5R)-2-(1,2-oxazolidin-2-ylcarbonyl)-6-(sulfooxy)-1,6-diazabicyclo[3.2.1]octane-7-one]	100 to 1000	< 100	100 to 1000	100 to 1000	
O=C(NNC(=O)[C@@H]1CC[C@@H]2CN1C(=O)N2OS(=O)(=O)O)C1CCNCC1 [Example 35, (2S,5R)-7-Oxo-N′-(piperidine-4-ylcarbonyl)-6-(sulfooxy)-1,6-diazabicyclo[3.2.1]octane-2-carbohydrazide]	100 to 1000	< 100	3000 to 10000		1000 to 3000
O=C(NOC[C@@H]1CCN1)[C@@H]1CC[C@@H]2CN1C(=O)N2OS(=O)(=O)O [Example 75, (2S,5R)—N-[(2S)-Azetidin-2-ylmethoxy]-7-oxo-6-(sulfooxy)-1,6-diazabicyclo[3.2.1]octane-2-carboxamide]	100 to 1000	< 100	100 to 1000		1000 to 3000
O=C(NNC(=O)[C@@H]1CC[C@@H]2CN1C(=O)N2OS(=O)(=O)O)[C@@H]1CCCN1 [Example 38, (2S,5R)-7-Oxo-N′-[(2S)-pyrrolidin-2-ylcarbonyl]-6-(sulfooxy)-1,6-diazabicyclo[3.2.1]octane-2-carbohydrazide]	100 to 1000	< 100	100 to 1000		1000 to 3000
O=C(NO[C@H]1CCNC1)[C@@H]1CC[C@@H]2CN1C(=O)N2OS(=O)(=O)O [Example 81, (2S,5R)-7-Oxo-N-[(3S)-pyrrolidin-3-yloxy]-6-(sulfooxy)-1,6-diazabicyclo[3.2.1]octane-2-carboxamide]	< 100	< 100	100 to 1000		1000 to 3000
CN(C)CCONC(=O)[C@@H]1CC[C@@H]2CN1C(=O)N2OS(=O)(=O)O [Example 65, (2S,5R)—N-[2-(Dimethylamino)ethoxy]-7-oxo-6-(sulfooxy)-1,6-diazabicyclo[3.2.1]octane-2-carboxamide]	100 to 1000	100 to 1000	1000 to 3000		1000 to 3000
O=C(NOC[C@@H]1CCCCN1)[C@@H]1CC[C@@H]2CN1C(=O)N2OS(=O)(=O)O [Example 78, (2S,5R)-7-Oxo-N-[(2S)-piperidine-2-ylmethoxy]-6-(sulfooxy)-1,6-diazabicyclo[3.2.1]octane-2-carboxamide]	100 to 1000	< 100	1000 to 3000		1000 to 3000
O=C(NOCC1CCNCC1)[C@@H]1CC[C@@H]2CN1C(=O)N2OS(=O)(=O)O [Example 85, (2S,5R)-7-Oxo-N-(piperidine-4-ylmethoxy)-6-(sulfooxy)-1,6-diazabicyclo[3.2.1]octane-2-carboxamide]	< 100	< 100	100 to 1000		100 to 1000
O=C(NOCCN1CCNC1=O)[C@@H]1CC[C@@H]2CN1C(=O)N2OS(=O)(=O)O [Example 94, Sodium (2S,5R)-7-oxo-N-[2-(2-oxoimidazolidin-1-yl)ethoxy]-6-(sulfooxy)-1,6-diazabicyclo[3.2.1]octane-2-carboxamide]	< 100	< 100	100 to 1000	100 to 1000	
O=C(NNC(=O)[C@@H]1CC[C@@H]2CN1C(=O)N2OS(=O)(=O)O)C1CCOCC1 [Example 34, Sodium (2S,5R)-7-oxo-6-(sulfooxy)-N′-(tetrahydro-2H-pyran-4-ylcarbonyl)-1,6-diazabicyclo[3.2.1]octane-2-carbohydrazide]	< 100	< 100	100 to 1000	3000 to 10000	
O=C(NOCCO)[C@@H]1CC[C@@H]2CN1C(=O)N2OS(=O)(=O)O [Example 95, Sodium (2S,5R)—N-(2-hydroxyethoxy)-7-oxo-6-(sulfooxy)-1,6-diazabicyclo[3.2.1]octane-2-carboxamide]	< 100	< 100	< 100	1000 to 3000	
O=C(NOCC1CNC1)[C@@H]1CC[C@@H]2CN1C(=O)N2OS(=O)(=O)O [Example 82, (2S,5R)—N-(Azetidin-3-ylmethoxy)-7-oxo-6-(sulfooxy)-1,6-diazabicyclo[3.2.1]octane-2-carboxamide]	< 100	< 100	100 to 1000		100 to 1000
O=C1CC[C@@H](C(=O)NNC(=O)[C@@H]2CC[C@@H]3CN2C(=O)N3OS(=O)(=O)O)N1 [Example 41, Sodium (2S,5R)-7-oxo-N′-{[(2S)-5-oxopyrrolidin-2-yl]carbonyl}-6-(sulfooxy)-1,6-diazabicyclo[3.2.1]octane-2-carbohydrazide]	100 to 1000	100 to 1000	1000 to 3000	3000 to 10000	
CS(=O)(=O)NNC(=O)[C@@H]1CC[C@@H]2CN1C(=O)N2OS(=O)(=O)O [Example 54, Sodium (2S,5R)—N′-(methylsulfonyl)-7-oxo-6-(sulfooxy)-1,6-diazabicyclo[3.2.1]octane-2-carbohydrazide]	< 100	< 100	100 to 1000	100 to 1000	
